What follows are compounds tested on HaCaT cells (assay: NAD assay in HaCaT cells, total NAD level normalized to protein). Details: 4 hours incubation, concentration not given.
Format: cell-based
Method: The biological activity of certain compounds disclosed herein was determined using the following method: • 1. Plate HaCaT cells in 12-well tissue culture plates at a density of 200,000 cells per well in 0.75 mL DMEM growth medium. Incubate overnight at 37° C. in a incubator at 5% CO2. • 2. Next day, prepare dilutions of each compound in growth medium at the desired final concentration. • 3. Incubate cells as above for 4 hours. • 4. After the incubation, wash cell monolayers in each well with 200 uL PBS and add 200 uL 0.25% Trypsin. Let cells lift for 15 minutes. • 5. Once cells are lifted, collect cells into sterile 1.5 mL Eppendorf tube containing 400 uL of DMEM w/2% HI FBS. • 6. Centrifuge tubes for 500×g for 5 min. • 7. Aspirate supernatant and wash cells with 200 uL of cold PBS. • 8. Centrifuge tubes for 500×g for 5 min. • 9. Aspirate supernatant and add 400 μL of cold extraction buffer (provided in the NAD assay kit) and vortex each tube for 10 seconds. • 10. Centrifuge samples at 13,000×g for 10 min to remove insoluble material. • 11. Use a small aliquot of extract to determine total protein concentration by BCA protein assay kit. • 12. Deproteinize samples by filtering them through a 10 kDa cut-off spin filter. Centrifuge at 13,000×g for 10 min. • 13. After cell lysate is filtered, load 25 uL of samples to 96 well plate for NAD assay. • 14. Add 25 uL of extraction buffer to each well with samples to dilute them 1:2. Add 50 uL of standards to appropriate wells. • 15. Set up master reaction mix of cycling buffer and NAD cycling enzyme mix. Add 100 uL of mix to each well and incubate for […]. • 16. Add 10 uL of developer into each well. • 17. Let plate incubate at room temperature for 1 hr. • 18. Stop the reaction by adding 10 uL of stop solution into each well and mix well. • 19. Measure absorbance at 450 nm using plate reader. • 20. Plot standard curve and normalize data to determine total NAD level.

Compound | NAD+ level [pmol/mg protein]
CC(C)Cc1ccc(C(C)C(=O)NCCNC(=O)c2cccnc2)cc1 (centres unmarked) | 697
COC(=O)c1ccc[n+]([C@@H]2O[C@H](COC(C)=O)[C@@H](OC(C)=O)[C@H]2OC(C)=O)c1 | 323
CC(=O)OC[C@H]1O[C@@H]([n+]2cccc(C(=O)Sc3ccccc3)c2)[C@H](OC(C)=O)[C@@H]1OC(C)=O | <1
O=C(Sc1ccccc1)c1ccc[n+]([C@@H]2O[C@H](CO)[C@@H](O)[C@H]2O)c1 | <1
CCOC(=O)c1ccc[n+]([C@@H]2O[C@H](COC(C)=O)[C@@H](OC(C)=O)[C@H]2OC(C)=O)c1 | 674
CC(C)(C)OC(=O)c1ccc[n+]([C@@H]2O[C@H](COP(=O)([O-])O)[C@@H](O)[C@H]2O)c1 | <1
CC(C)(C)OC(=O)c1ccc[n+]([C@@H]2O[C@H](CO)[C@@H](O)[C@H]2O)c1 | 1162
O=C(Oc1ccc(/C=C/c2cc(OC(=O)c3cccnc3)cc(OC(=O)c3cccnc3)c2)cc1)c1cccnc1 | 616
CC1CCC(C(C)C)C(OC(=O)c2cccnc2)C1 (centres unmarked) | <1
CCC(=O)OC[C@H]1O[C@@H]([n+]2cccc(C(=O)O)c2)[C@H](OC(=O)CC)[C@@H]1OC(=O)CC | 667
CC(C)(C)OC(=O)CCCCCCCCCCCCCCCCC(=O)NCCNC(=O)c1cccnc1 | 460
[2H]c1nc([2H])c(C(=O)NCCCCCC[P+](c2ccccc2)(c2ccccc2)c2ccccc2)c([2H])c1[2H] | 435
O=C(Cc1ccccc1Nc1c(Cl)cccc1Cl)NCCNC(=O)c1cccnc1 | 338
CC(=O)OC[C@H]1O[C@@H]([n+]2cccc(C(=O)OCc3ccccc3)c2)[C@H](OC(C)=O)[C@@H]1OC(C)=O | 426
O=C(O)c1ccc[n+]([C@@H]2O[C@H](COC(=O)c3cccnc3)[C@@H](OC(=O)c3cccnc3)[C@H]2OC(=O)c2cccnc2)c1 | 656
O=C(OCc1ccccc1)c1ccc[n+]([C@@H]2O[C@H](CO)[C@@H](O)[C@H]2O)c1 | 463
CC(=O)OC[C@H]1O[C@@H]([n+]2cccc(C(=O)O)c2)[C@H](OC(C)=O)[C@@H]1OC(C)=O | 311
CC(=O)OC[C@H]1O[C@@H]([n+]2cccc(C(=O)OC(C)(C)C)c2)[C@H](OC(C)=O)[C@@H]1OC(C)=O | <1
O=C(OCCO)c1cccnc1 | 501

Compound | NAD+ level [pmol/mg protein]
NCCNC(=O)c1cccnc1 | 587
O=C(NCCNCCC[P+](c1ccccc1)(c1ccccc1)c1ccccc1)c1cccnc1 | 391
O=C(NCCNCCCCCC[P+](c1ccccc1)(c1ccccc1)c1ccccc1)c1cccnc1 | 378
O=C(Oc1ccc2c(c1)oc(=O)c1cc(O)ccc12)c1cccnc1 | 681
O=C(OCCCCCC[P+](c1ccccc1)(c1ccccc1)c1ccccc1)c1cccnc1 | <1
O=C(OCCOCCC[P+](c1ccccc1)(c1ccccc1)c1ccccc1)c1cccnc1 | <1
O=C(OCCC[P+](c1ccccc1)(c1ccccc1)c1ccccc1)c1cccnc1 | 576
O=C(NC[P+](c1ccccc1)(c1ccccc1)c1ccccc1)c1cccnc1 | 521
O=C(OC[P+](c1ccccc1)(c1ccccc1)c1ccccc1)c1cccnc1 | 319
O=C(NCC[P+](c1ccccc1)(c1ccccc1)c1ccccc1)c1cccnc1 | 466
O=C(NCCC[P+](c1ccccc1)(c1ccccc1)c1ccccc1)c1cccnc1 | 560
O=C(CCCCC[P+](c1ccccc1)(c1ccccc1)c1ccccc1)NCCNC(=O)c1cccnc1 | 607
CCCCCCCCCCCCCCOC(=O)c1ccc[n+]([C@@H]2O[C@H](CO)[C@@H](O)[C@H]2O)c1 | <1
CC1=C(/C=C/C(C)=C/C=C/C(C)=C/C(=O)NCCNC(=O)c2cccnc2)C(C)(C)CCC1 | 815
CC(=O)OC[C@H]1O[C@@H]([n+]2cccc(C(=O)NCCCCCC[P+](c3ccccc3)(c3ccccc3)c3ccccc3)c2)[C@H](OC(C)=O)[C@@H]1OC(C)=O | 565
CC(=O)OC[C@H]1O[C@@H]([n+]2cccc(C(=O)NCCNC(=O)c3ccc[n+]([C@@H]4O[C@H](COC(C)=O)[C@@H](OC(C)=O)[C@H]4OC(C)=O)c3)c2)[C@H](OC(C)=O)[C@@H]1OC(C)=O | 354
CC(=O)OC[C@H]1O[C@@H]([n+]2cccc(C(=O)NCCNC(=O)CCCCC[P+](c3ccccc3)(c3ccccc3)c3ccccc3)c2)[C@H](OC(C)=O)[C@@H]1OC(C)=O | 311
CC(=O)OC[C@H]1O[C@@H]([n+]2cccc(C(=O)NCCC[P+](c3ccccc3)(c3ccccc3)c3ccccc3)c2)[C@H](OC(C)=O)[C@@H]1OC(C)=O | 292
O=C(NCCCCCC[P+](c1ccccc1)(c1ccccc1)c1ccccc1)c1ccc[n+]([C@@H]2O[C@H](CO)[C@@H](O)[C@H]2O)c1 | 285

Compound | NAD+ level [pmol/mg protein]
CC(C)Cc1ccc(C(C)C(=O)OCCOC(=O)c2cccnc2)cc1 (centres unmarked) | 539
CCCCCc1cc(OC(=O)c2cccnc2)c2c(c1)OC(C)(CCC=C(C)C)C=C2 (centres unmarked) | 375
O=C(OCCOCCCCCC[P+](c1ccccc1)(c1ccccc1)c1ccccc1)c1cccnc1 | 230
O=C(CCCCC[P+](c1ccccc1)(c1ccccc1)c1ccccc1)NCCOC(=O)c1cccnc1 | <1
O=C(NCc1ccccc1)c1ccc[n+]([C@@H]2O[C@H](CO)[C@@H](O)[C@H]2O)c1 | 274
O=C(CCCC[P+](c1ccccc1)(c1ccccc1)c1ccccc1)NCCNC(=O)c1cccnc1 | 495
O=C(CCCC[P+](c1ccccc1)(c1ccccc1)c1ccccc1)NCCOC(=O)c1cccnc1 | 508
O=C(OCCOCCCCCCCCC[P+](c1ccccc1)(c1ccccc1)c1ccccc1)c1cccnc1 | <1
O=C(NCCNCCCCCCCCC[P+](c1ccccc1)(c1ccccc1)c1ccccc1)c1cccnc1 | 395
CCCCCCCCCCCCCCNC(=O)c1ccc[n+]([C@@H]2O[C@H](CO)[C@@H](O)[C@H]2O)c1 | <1
CC(=O)OC[C@H]1O[C@@H]([n+]2cccc(C(=O)OCCOC(=O)c3ccc[n+]([C@@H]4O[C@H](COC(C)=O)[C@@H](OC(C)=O)[C@H]4OC(C)=O)c3)c2)[C@H](OC(C)=O)[C@@H]1OC(C)=O | 655
CC(=O)OC[C@H]1O[C@@H]([n+]2cccc(C(=O)OC3CC(C)CCC3C(C)C)c2)[C@H](OC(C)=O)[C@@H]1OC(C)=O (some centres unmarked) | 258
CC1CCC(C(C)C)C(OC(=O)c2ccc[n+]([C@@H]3O[C@H](CO)[C@@H](O)[C@H]3O)c2)C1 (some centres unmarked) | 464
CC(=O)Oc1cc(/C=C/c2ccc(OC(=O)c3cccnc3)cc2)cc(OC(C)=O)c1 | 122
O=C(Oc1ccc(/C=C/c2cc(O)cc(O)c2)cc1)c1ccc[n+]([C@@H]2O[C@H](CO)[C@@H](O)[C@H]2O)c1 | 94
CC(=O)OC[C@H]1O[C@@H]([n+]2cccc(C(=O)Oc3ccc(/C=C/c4cc(OC(C)=O)cc(OC(C)=O)c4)cc3)c2)[C@H](OC(C)=O)[C@@H]1OC(C)=O | <1
CC1CCC(C(C)C)C(OC(=O)c2ccc[n+]([C@@H]3O[C@H](COP(=O)([O-])O)[C@@H](O)[C@H]3O)c2)C1 (some centres unmarked) | 472
O=C(Oc1cc(OC(=O)c2cccnc2)c2c(=O)c(O)c(-c3ccc(OC(=O)c4cccnc4)c(OC(=O)c4cccnc4)c3)oc2c1)c1cccnc1 | 328

Source: US20230242558A1, “NICOTINATE AND NICOTINAMIDE RIBOSIDE-BASED COMPOUNDS AND DERIVATIVES THEREOF” (New Frontier Bio, Inc., priority 2022, published 2023)
